We go through eight molecules from patent publication US10272055B2, “Therapeutic compounds and methods” (Regents of the University of Minnesota, priority 2014, dated 2019).

“Also recorded” adds a separate entry of the source. Like-named read-outs stand apart in the source and are kept apart here.

Data set [1] deals with CYP3A4 epoxygenase (Homo sapiens, UniProt P08684). As to the kind of experiment: CYP3A4 Supersome epoxygenase assay: EET synthesis from arachidonic acid, LC-ESI-MS/MS. Particulars: for inhibition of CYP3A4-mediated EETs synthesis: CYP3A4 Supersome, arachidonic acid 60 uM, 30 minutes, 37 C. As to the method: Measurements are reported as percentage of control reactions performed with vehicle but no compound. A ^13C-EET recovery standard was used to control for recovery of EETs from extractions. […] EET measurements in these Supersome experiments are expressed as percentage of control reactions. Absolute EET measurements are determined by subtraction of regioisomer values in a baseline reaction lacking NADPH. Measurements were performed in triplicate and values are expressed as the mean±SD.
After the reaction, EETs were then extracted with 1 mL dichloromethane and reconstituted in methanol and analyzed by LC-ESI-MS/MS.

The subject of data set [2] is MCF-7 cell line. Briefly: MTT growth assay, MCF-7 line. To be noted: Homo sapiens, MCF7, 24 h, read-out: IC50, MCF-7 growth. It counts as cell-based. How it is done:
The growth of the MCF-7 line was measured by MTT assay at 24 hours. Cells were plated in complete media in the presence of serum (10% FBS) and cultured at 37° C. with 5% CO2 and treated with the biguanide or DMSO vehicle. Growth was measured at 24 hours by MTT assay.
Cells were plated in complete media in the presence of serum (10% FBS) and cultured at 37° C. with 5% CO2 and treated with HBB or DMSO vehicle. Growth was measured at 24 hours by MTT assay.

Data set [3] has as its system AMPK. As to the kind of experiment: AMPK phosphorylation Western blot in MCF7. It counts as cell-based. Particulars: for AMPK phosphorylation relative to control: MCF7, 6 hours, metformin, buformin, phenformin 1 mM, HBB 20 uM. As to the method: Western blotting analysis was performed in triplicate.
Cells were plated in complete media in the presence of serum (10% FBS) and cultured at 37° C. with 5% CO2 and treated with biguanides for 6 hours before harvesting. Total protein was extracted and analyzed by Western-blotting with GAPDH as an internal control.
Cells were plated in complete media in the presence of serum (10% FBS) and cultured at 37° C. with 5% CO2 and treated with 14,15-EET or EtOH control for 24 hours before harvesting. Total protein was extracted and analyzed by Western-blotting with GAPDH as an internal control.
A general note: A western blot detects proteins with antibodies after separation by electrophoresis.

Data set [4] has as its system MCF7 line. Briefly: 14,15-EET protection against biguanide growth inhibition, MTT, MCF7. It counts as cell-based. To be noted: MCF-7, exogenous (±)-14,15-EET (1 uM). As to the method:
Cells were plated in complete media in the presence of serum (10% FBS) and cultured at 37° C. with 5% CO2 and treated with biguanides for 24 hours in the presence or absence of 1 uM 14,15-EET. Growth was then measured at 24 hour by MTT assay.

The target of data set [5] is CYP3A4 nanodiscs (Homo sapiens, UniProt P08684). Briefly: CYP3A4 nanodisc spin shift titration. It counts as binding. To be noted: no CPR; 156 uM and 1.1 mM metformin.
The subject of data set [6] is MCF-7 xenograft. As to the kind of experiment: MCF-7 xenograft in nude mice. It counts as in vivo. Particulars: metformin 40 mg/kg/day in drinking water vs vehicle. How it is done:
FIG. 3A. MCF-7 xenograft with 3×10^6 cells in the 2nd mammary fat pad on day 0. HBB (4 mg/kg ip daily) (ν) or PBS (ρ) treatment began on day 1. * indicates P<0.05. FIG. 3B. MDAMB-231 xenograft with 1×10^6 cells in the 2nd mammary fat pad on day 0. HBB (4 mg/kg ip daily) (ν) or PBS (ρ) treatment began on day 1. N=20 mice per arm for each study; error bars are SEM.
MCF-7 cells were implanted in the mammary fat pad of 4-5 week mice and treatment was initiated when tumor size was ≥15 mm^3 by 2 sequential measurements with randomized assignment to the treatment arms.
FIG. 44A. Nude mice were inoculated with 3×10^6 MCF-7 cells and treated with vehicle (Δ) HBB at the MTD (4 mg/kg/day ip) (▪). (* indicates P<0.05). Error bars are SEM. […] The dose limiting toxicity was weight loss. At the MTD there was a well-tolerated 4% reduction of weight at 42 days (P<0.0001; data not shown). FIG. 44B. Nude mice were inoculated with 1×10^6MDA-MB-231 cells and treated with HBB at the MTD (4 mg/kg/day ip).

Data set [7] concerns AA metabolism to EET in MCF-7 cells. Briefly: EET regioisomer abundance in MCF-7 cells. It counts as cell-based. To be noted: 0.10 mM metformin, 6 h.
Data set [8] concerns CYP3A4. As to the kind of experiment: CYP3A4 protein level in MCF7 cells. To be noted: MCF7, metformin 1 mM, 48 hours. It counts as cell-based.
In data set [9] the test system is AMPK. As to the kind of experiment: AMPK phosphorylation Western blot in MDA-MB-231. It counts as cell-based. To be noted: MDA-MB-231, 1 uM 14,15-EET, 24 hours. How it is done: FIG. 38 illustrates that 14,15-EET inactivates AMPK in MCF7 line but not in MDA-MB-231 line. Cells were plated in complete media in the presence of serum (10% FBS) and cultured at 37° C. with 5% CO2 and treated with 14,15-EET or EtOH control for 24 hours before harvesting. Total protein was extracted and analyzed by Western-blotting with GAPDH as an internal control.

Data set [10] relates to MDA-MB-231. As to the kind of experiment: MTT growth assay, MDA-MB-231 line. It counts as cell-based. Particulars: Homo sapiens, MDA-MB-231, 24 h, MTT assay at 24 hours, 10% FBS. How it is done:
FIG. 30 illustrates HBB inhibits proliferation of MCF7 and MDA-MB-231 lines. Cells were plated in complete media in the presence of serum (10% FBS) and cultured at 37° C. with 5% CO2 and treated with HBB or DMSO vehicle. Growth was measured at 24 hours by MTT assay. Results were converted to percent growth of control and represented as mean±S.E. (n=8).

Data set [11] relates to STAT3. As to the kind of experiment: STAT3 phosphorylation Western blot in MCF7. It counts as cell-based. As to the method: Western blotting analysis was performed (C=control, M=metform and H=HBB).
Total protein was extracted and analyzed by Western-blotting with GAPDH as an internal control.

The subject of data set [12] is MCF7. Briefly: NAC protection against HBB growth inhibition, MTT, MCF7. It counts as cell-based. To be noted: MCF7, 0.1 mM or 1 mM NAC, at IC50 of HBB. As to the method:
FIG. 34 illustrates that N-acetylcysteine (NAC) protects MDA-MB-231 but not MCF7 against HBB-mediated growth inhibition. Cells were plated in complete media in the presence of serum (10% FBS) and cultured at 37° C. with 5% CO2 and treated with HBB in the presence of NAC or PBS control. Growth was then measured at 24 hours by MTT assay. Results were converted to percent growth of control and represented as mean±S.E. (n=8).

Sequence of CYP3A4 epoxygenase (P08684 whole entry): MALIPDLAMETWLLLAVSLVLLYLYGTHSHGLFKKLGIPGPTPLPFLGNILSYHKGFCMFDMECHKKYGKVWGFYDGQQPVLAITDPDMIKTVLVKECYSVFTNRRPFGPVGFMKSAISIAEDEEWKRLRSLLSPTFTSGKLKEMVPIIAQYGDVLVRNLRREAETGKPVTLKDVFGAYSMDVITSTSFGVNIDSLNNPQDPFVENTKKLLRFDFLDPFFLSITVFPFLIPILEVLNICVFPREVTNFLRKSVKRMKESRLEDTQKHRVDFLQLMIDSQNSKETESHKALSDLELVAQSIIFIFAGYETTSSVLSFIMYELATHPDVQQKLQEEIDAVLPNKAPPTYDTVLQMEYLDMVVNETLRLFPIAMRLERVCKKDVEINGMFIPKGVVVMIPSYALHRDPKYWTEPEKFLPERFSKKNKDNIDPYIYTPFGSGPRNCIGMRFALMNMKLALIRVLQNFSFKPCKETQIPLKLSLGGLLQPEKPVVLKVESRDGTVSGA
Sequence of CYP3A4 nanodiscs (P08684 whole entry): as above

Regarding `[H]/N=C(/N)N/C(=N/[H])NCCc1ccccc1` [phenformin, reference compound], in data set [1], the “inhibition of CYP3A4-mediated EETs synthesis” value is recorded as “inhibit CYP3A4 epoxygenase”. Further, in data set [2] (MTT assay at 24 hours, 10% FBS), the IC50 was determined as 8000 µM. In [3], the “AMPK phosphorylation relative to control” value is recorded as “increased phosphorylation of AMPK”. The “rescue of MCF-7 growth by 14,15-EET in the presence of the biguanide” value (from here on “rescue of MCF-7 growth by 14,15-EET”) in data set [4] is reported as “rescues the MCF-7 line; also recorded: partial rescue”.
On to `CCCCCCNC(=N)NC(=N)NCc1ncc[nH]1` [HIB 2-yl, N1-hexyl-N5-((1H-imidazol-2-yl)methyl)-biguanide], for which, in data set [2] (MTT assay at 24 hours, 10% FBS), the half-maximal inhibitory concentration (IC50) is more than 150 µM.
In the case of `CN(C)C(=N)N=C(N)N` [metformin, reference compound], the “inhibition of CYP3A4-mediated EETs synthesis” value in data set [1] is “inhibit CYP3A4 epoxygenase; also recorded: significantly reduced EETs production”. Also, the IC50 in [2] (MTT assay at 24 hours, 10% FBS) was more than 10000 µM. For the same molecule, the “binding to CYP3A4 nanodiscs” value in data set [5] was “binds to functional CYP3A4 epoxygenase nanodiscs”. In addition, the “tumor growth, MCF-7 xenograft” value was “inhibits the MCF-7 xenograft” in data set [6] and “suppressed tumor growth” in data set [6] (listed as Metformin). Moreover, the “rescue of MCF-7 growth by 14,15-EET” value in [4] is on record as “rescues the MCF-7 line; also recorded: partial rescue”. Further, the “abundance of EET regioisomers” value in data set [7] is reported as “reduced abundance”. Moreover, in data set [8], the CYP3A4 protein level entry is on record as “does not change CYP3A4 protein level”.
With `CCCCCC1OC1CC=CCC=CCC=CCCCC(=O)O` (racemic) [14,15-EET, (±)-14,15-epoxyeicosatrienoic acid, reference compound], the “AMPK phosphorylation relative to EtOH control” value in data set [3] (MCF7, 1 uM 14,15-EET, 24 hours) was “decreased phosphorylation of AMPK”. Further, in data set [9], the “AMPK phosphorylation relative to control” value is “no statistical significant change of AMPK phosphorylation”.
`CCCCNC(=N)NC(=N)N` [buformin]: in data set [2], the IC50 is more than 10000 µM. Moreover, the “AMPK phosphorylation relative to control” value in [3] is recorded as “increased phosphorylation of AMPK”. Further, the “rescue of MCF-7 growth by 14,15-EET” value in data set [4] was “rescues the MCF-7 line; also recorded: partial rescue”.
Consider `CCCCCCNC(=N)NC(=N)NCc1ccccc1.Cl` [HBB-HCl, N1-hexyl-N5-benzyl biguanide hydrochloride], for which the IC50 in data set [1] (IC50, inhibition of CYP3A4 epoxygenase) is approximately 50 µM; in data set [2] (MTT assay at 24 hours, 10% FBS), 20 µM; in [10] it was 20 µM. In addition, the “concentration that activates AMPK phosphorylation” value in data set [3] was more than 10 µM. The “fold more potent than metformin, activation of AMPK phosphorylation” value in [3] (vs metformin) is on record as more than 100 fold. For the same molecule, the “concentration that inhibits STAT3 phosphorylation” value in [11] was more than 10 µM. For the same molecule, the “fold more potent than metformin, inhibition of Stat3 phosphorylation” value in [11] (vs metformin) is more than 100 fold. In addition, the “rescue of MCF-7 growth by 14,15-EET” value in data set [4] is “partially inhibited”.
Turning to `CCCCCCNC(=N)NC(=N)NCc1ccncc1` [HPB, N1-hexyl-N5-(pyridin-4-ylmethyl) biguanidine], in [2] (MTT assay at 24 hours, 10% FBS), the IC50 is 40 µM.
For the molecule `CC(=O)N[C@@H](CS)C(=O)O` [NAC, N-acetylcysteine], the “protection by NAC against HBB-mediated growth inhibition” value in [12] is recorded as “failed to protect”.

As usually defined, the IC50 is the concentration at which inhibition is half-maximal.
